What all share (format): in vivo
Test [1] concerns Lindernia procumbens. As to the kind of experiment: Herbicidal efficacy on paddy field weeds of pre-emergence stage (Pre), Test Example 1. As to conditions: 1000 g/ha as active ingredient, examined after 21 days. The method, then:
(§1) 75 cm^2 plastic pots were filled with the soil (clay loam). Seeds of Scirpus juncoides, a paddy weed, were planted, and they were covered with 75 cm^3 of soil mixed with seeds of Lindernia procumbens and then filled with water depth of 5 cm. Next day, predetermined effective dosage (1000 g/ha as an active ingredient) of formulations comprising a compound of the present invention as an active ingredient which were prepared following Formulation Examples 1 to 4 was diluted with water and applied dropwise to the surface of the water. Then, they were brought up in a greenhouse and the herbicidal effect was examined after 21 days from the treatment by comparing with the result of an untreated group according to the following criteria. In the table, “-” means that the test was not performed.
(§2) Criteria for herbicidal efficacy (growth inhibiting degree) and phytotoxicity. • 5 . . . 100% herbicidal effect, phytotoxicity. • 4 . . . 90%-99% herbicidal effect, phytotoxicity. • 3 . . . 70%-89% herbicidal effect, phytotoxicity. • 2 . . . 40%-69% herbicidal effect, phytotoxicity. • 1 . . . 1%-39% herbicidal effect, phytotoxicity. • 0 . . . 0% herbicidal effect, phytotoxicity.

In test [2] the test system is Scirpus juncoides. Described as above. As to conditions: 1000 g/ha as active ingredient, examined after 21 days. The procedure: as §1, §2
The test system of test [3] is Lindernia procumbens. As to the kind of experiment: Herbicidal effect on paddy field weeds of post-emergence stage (Post), Test Example 2. As to conditions: one-leaf stage, 1000 g/ha as active ingredient, examined after 21 days.
From the text: as §2
(§3) 75 cm^2 plastic pots were filled with the soil (clay loam). Seeds of Scirpus juncoides and Echinochloa crus-galli, paddy weeds, were planted, and they were covered with 75 cm^3 of soil mixed with seeds of Lindernia procumbens and then filled with water depth of 5 cm and they were brought up in a greenhouse. When the test plants were at one-leaf stage, predetermined effective dosage (1000 g/ha as an active ingredient) of formulations comprising a compound of the present invention as an active ingredient was applied to the pot water. Then, they were brought up in a greenhouse and the herbicidal efficacy was examined after 21 days from the treatment by comparing with the result of an untreated group according to the criteria of Test Example 1. In the table, “-” means that the test was not performed.

In test [4] the test system is Scirpus juncoides. The test is described as above. The following applies: one-leaf stage, 1000 g/ha as active ingredient, examined after 21 days.
From the text: as §2, §3

With `CC1(c2c(F)cccc2F)CCN(Cc2ccccc2NS(=O)(=O)C(F)(F)F)C(=O)O1` (racemic) [Compound 1-439], the “Lindernia procumbens pre (herbicidal effect)” value (shortened to “Lindernia procumbens pre”) in test [1] was 5 (100% herbicidal effect, phytotoxicity). In addition, the “Scirpus juncoides pre (herbicidal effect)” value (from here on “Scirpus juncoides pre”) in test [2] is reported as 5 (100% herbicidal effect, phytotoxicity). For the same molecule, the “Lindernia procumbens post (herbicidal effect)” value (from here on “Lindernia procumbens post”) in test [3] was 5 (100% herbicidal effect, phytotoxicity). In addition, in test [4], the “Scirpus juncoides post (herbicidal effect)” value (from here on “Scirpus juncoides post”) was 4 (90%-99% herbicidal effect, phytotoxicity).
Take `CCC1(C(C)C)CCN(Cc2ccccc2N(C(=O)OCC(C)(C)C)S(=O)(=O)C(F)(F)F)C(=O)O1` (racemic) [Compound 1-456]: in test [1], the “Lindernia procumbens pre” value is 5 (100% herbicidal effect, phytotoxicity). Besides, the “Scirpus juncoides pre” value in test [2] is listed as 5 (100% herbicidal effect, phytotoxicity). In addition, in test [3], the “Lindernia procumbens post” value was 5 (100% herbicidal effect, phytotoxicity). For the same molecule, the “Scirpus juncoides post” value in test [4] is reported as 4 (90%-99% herbicidal effect, phytotoxicity).
As for `CC1(Cc2ccccc2F)CCN(Cc2ccccc2NS(=O)(=O)C(F)(F)F)C(=O)O1` (racemic) [Compound 1-461], the “Lindernia procumbens pre” value in test [1] is reported as 5 (100% herbicidal effect, phytotoxicity). The “Scirpus juncoides pre” value in test [2] was 5 (100% herbicidal effect, phytotoxicity). Further, the “Lindernia procumbens post” value in test [3] was 5 (100% herbicidal effect, phytotoxicity). Further, in test [4], the “Scirpus juncoides post” value is listed as 4 (90%-99% herbicidal effect, phytotoxicity).
As for `CCCOC(=O)N(c1ccccc1CN1CCC(CC)(C(F)(F)F)OC1=O)S(=O)(=O)C(F)(F)F` (stereo not drawn) [Compound 1-94], in test [1], the “Lindernia procumbens pre” value is on record as 5 (100% herbicidal effect, phytotoxicity). For the same molecule, the “Scirpus juncoides pre” value in test [2] is reported as 5 (100% herbicidal effect, phytotoxicity). Further, in test [3], the “Lindernia procumbens post” value is 5 (100% herbicidal effect, phytotoxicity). Also, in test [4], the “Scirpus juncoides post” value was 4 (90%-99% herbicidal effect, phytotoxicity).
Regarding `CCCCOC(=O)N(c1ccccc1CN1CCC(CC)(C(F)(F)F)OC1=O)S(=O)(=O)C(F)(F)F` (stereo not drawn) [Compound 1-95], the “Lindernia procumbens pre” value in test [1] is on record as 5 (100% herbicidal effect, phytotoxicity). In test [2], the “Scirpus juncoides pre” value is 5 (100% herbicidal effect, phytotoxicity). The “Lindernia procumbens post” value in test [3] is reported as 5 (100% herbicidal effect, phytotoxicity). Also, the “Scirpus juncoides post” value in test [4] is given as 4 (90%-99% herbicidal effect, phytotoxicity).
Turning to `CCC1(CC)CCN(Cc2ccccc2N(C(=O)OCC(C)(C)C)S(=O)(=O)C(F)(F)F)C(=O)O1` [Compound 1-108], the “Lindernia procumbens pre” value in test [1] is reported as 4 (90%-99% herbicidal effect, phytotoxicity). Moreover, the “Scirpus juncoides pre” value in test [2] was 4 (90%-99% herbicidal effect, phytotoxicity). For the same molecule, in test [3], the “Lindernia procumbens post” value is 4 (90%-99% herbicidal effect, phytotoxicity). The “Scirpus juncoides post” value in test [4] is on record as 4 (90%-99% herbicidal effect, phytotoxicity).
Regarding `CCC1(CC)CCN(Cc2ccccc2N(C(=O)OCC(C)C)S(=O)(=O)C(F)(F)F)C(=S)O1` [Compound 1-119], the “Lindernia procumbens pre” value in test [1] is 4 (90%-99% herbicidal effect, phytotoxicity). For the same molecule, the “Scirpus juncoides pre” value in test [2] is reported as 4 (90%-99% herbicidal effect, phytotoxicity). Further, the “Lindernia procumbens post” value in test [3] was 4 (90%-99% herbicidal effect, phytotoxicity). The “Scirpus juncoides post” value in test [4] is recorded as 4 (90%-99% herbicidal effect, phytotoxicity).
Take `CCCCC(CC)COC(=O)N(c1ccccc1CN1CCC2(CCCC2)OC1=O)S(=O)(=O)C(F)(F)F` (stereo not drawn) [Compound 1-144]: the “Lindernia procumbens pre” value in test [1] was 4 (90%-99% herbicidal effect, phytotoxicity). Moreover, in test [2], the “Scirpus juncoides pre” value is on record as 4 (90%-99% herbicidal effect, phytotoxicity). Also, the “Lindernia procumbens post” value in test [3] is listed as 4 (90%-99% herbicidal effect, phytotoxicity). Also, the “Scirpus juncoides post” value in test [4] is 4 (90%-99% herbicidal effect, phytotoxicity).
For the molecule `CC(C)(C)COC(=O)N(c1ccccc1CN1CCC(C2CC2)(C2CC2)OC1=O)S(=O)(=O)C(F)(F)F` [Compound 1-155], the “Lindernia procumbens pre” value in test [1] was 4 (90%-99% herbicidal effect, phytotoxicity). In test [2], the “Scirpus juncoides pre” value was 4 (90%-99% herbicidal effect, phytotoxicity). The “Lindernia procumbens post” value in test [3] is reported as 4 (90%-99% herbicidal effect, phytotoxicity). The “Scirpus juncoides post” value in test [4] is 4 (90%-99% herbicidal effect, phytotoxicity).
With `CC1(c2ccccc2)CCN(Cc2ccccc2NS(=O)(=O)C(F)(F)F)C(=O)O1` (stereo not drawn) [Compound 1-160], the “Lindernia procumbens pre” value in test [1] is 4 (90%-99% herbicidal effect, phytotoxicity). For the same molecule, in test [2], the “Scirpus juncoides pre” value is listed as 4 (90%-99% herbicidal effect, phytotoxicity). The “Lindernia procumbens post” value in test [3] is listed as 4 (90%-99% herbicidal effect, phytotoxicity). For the same molecule, in test [4], the “Scirpus juncoides post” value is on record as 4 (90%-99% herbicidal effect, phytotoxicity).
Turning to `CCOC(=O)N(c1ccccc1CN1CCC(C)(c2ccccc2)OC1=O)S(=O)(=O)C(F)(F)F` (stereo not drawn) [Compound 1-162], the “Lindernia procumbens pre” value in test [1] is reported as 4 (90%-99% herbicidal effect, phytotoxicity). Besides, in test [2], the “Scirpus juncoides pre” value was 4 (90%-99% herbicidal effect, phytotoxicity). For the same molecule, the “Lindernia procumbens post” value in test [3] is 4 (90%-99% herbicidal effect, phytotoxicity). Further, the “Scirpus juncoides post” value in test [4] is given as 4 (90%-99% herbicidal effect, phytotoxicity).
As for `CC1(c2ccccc2Cl)CCN(Cc2ccccc2NS(=O)(=O)C(F)(F)F)C(=O)O1` (stereo not drawn) [Compound 1-172], the “Lindernia procumbens pre” value in test [1] is listed as 4 (90%-99% herbicidal effect, phytotoxicity). The “Scirpus juncoides pre” value in test [2] was 4 (90%-99% herbicidal effect, phytotoxicity). The “Lindernia procumbens post” value in test [3] is given as 4 (90%-99% herbicidal effect, phytotoxicity). In addition, the “Scirpus juncoides post” value in test [4] is listed as 4 (90%-99% herbicidal effect, phytotoxicity).
With `CCOC(=O)N(c1ccccc1CN1CCC(C)(c2ccccc2Cl)OC1=O)S(=O)(=O)C(F)(F)F` (stereo not drawn) [Compound 1-174], the “Lindernia procumbens pre” value in test [1] was 4 (90%-99% herbicidal effect, phytotoxicity). Moreover, the “Scirpus juncoides pre” value in test [2] is listed as 4 (90%-99% herbicidal effect, phytotoxicity). Moreover, the “Lindernia procumbens post” value in test [3] is recorded as 4 (90%-99% herbicidal effect, phytotoxicity). For the same molecule, in test [4], the “Scirpus juncoides post” value is on record as 4 (90%-99% herbicidal effect, phytotoxicity).
With `CC(C)COC(=O)N(c1ccccc1CN1CCC(C)(c2ccccc2Cl)OC1=O)S(=O)(=O)C(F)(F)F` (stereo not drawn) [Compound 1-177], the “Lindernia procumbens pre” value in test [1] is reported as 4 (90%-99% herbicidal effect, phytotoxicity). Also, the “Scirpus juncoides pre” value in test [2] is reported as 4 (90%-99% herbicidal effect, phytotoxicity). The “Lindernia procumbens post” value in test [3] is 4 (90%-99% herbicidal effect, phytotoxicity). In addition, the “Scirpus juncoides post” value in test [4] is 4 (90%-99% herbicidal effect, phytotoxicity).
As to `O=C1OC(c2ccccc2)(C2CC2)CCN1Cc1ccccc1NS(=O)(=O)C(F)(F)F` (stereo not drawn) [Compound 1-183], the “Lindernia procumbens pre” value in test [1] is listed as 4 (90%-99% herbicidal effect, phytotoxicity). Moreover, the “Scirpus juncoides pre” value in test [2] is reported as 4 (90%-99% herbicidal effect, phytotoxicity). Further, in test [3], the “Lindernia procumbens post” value was 4 (90%-99% herbicidal effect, phytotoxicity). The “Scirpus juncoides post” value in test [4] is given as 4 (90%-99% herbicidal effect, phytotoxicity).
